Experimental data: patent US7511151B2 (priority 2002, dated 2009)

Tested on: Erysiphe graminis f. sp. hordei
Conditions: in vivo

CC#CC(C)(C)NC(=O)C(OCC)Oc1cncc(Cl)c1 (stereo not shown) [1 (1), 2-(5-chloropyridyl-3-oxy)-2-(ethoxy)-N-(2-methylpent-3-yn-2-yl) acetamide]
control of disease: > 60%
